Source: ChEMBL document CHEMBL4673293, “Trypanocidal activity of new 1,6-diphenyl-1H-pyrazolo[3,4-b]pyridine derivatives: Synthesis, in vitro and in vivo studies” (Bioorg Med Chem, 2021)
Calls of active or inactive are those of the source. The calls are words filed in the database; no cut-off is given here.

Assays:
[1] = Selectivity index, ratio of CC50 for monkey LLC-MK2 cells to IC50 for antitrypanosomal activity against intracellular amastigote form of Trypanosoma cruzi Tulahuen strain infected in monkey LLC-MK2 cells; format: toxicity, cell-based; details: read-out: Ratio CC50/IC50
[2] = Cytotoxicity against monkey LLC-MK2 cells assessed as reduction in cell viability incubated for 72 hrs by MTT assay; format: cell-based, Macaca mulatta; details: rhesus monkey
Trypanosoma cruzi [3] = test: (§1) Antitrypanosomal activity against intracellular amastigote form of Trypanosoma cruzi Tulahuen strain infected in monkey LLC-MK2 cells assessed as reduction in parasite viability incubated for 72 hrs by beta-galactosidase reporter gene assay; format: functional, organism-based
Trypanosoma cruzi [4] = test: (§2) Antitrypanosomal activity against blood trypomastigote form of Trypanosoma cruzi strain Y infected in BALB/c mouse assessed as reduction in parasite DNA load in host heart at 25 mg/kg, po administered via gavage daily for 15 days starting from 2 days post-infection and measured on 16th day post-infection by qPCR analysis relative to control; format: functional; details: for Activity: time 15.0 day
Trypanosoma cruzi [5] = test: as §2, with “amastigote nest” for “parasite DNA load”, “haematoxylin and eosin staining based microscopic” for “qPCR”, “analysis” for “analysis relative to control”; format: functional; details: for inhibition in vivo at 25 mg/kg: 360 h, time 15 day
[6] = Hepatotoxicity in BALB/c mouse infected with blood trypomastigote form of Trypanosoma cruzi strain Y assessed as ALT level in plasma at 25 mg/kg, po administered via gavage daily for 15 days starting from 2 days post-infection and measured on 16th day post-infection; format: toxicity, organism-based; details: in vivo, 360 h, time 15 day
[7] = Renal toxicity in BALB/c mouse infected with blood trypomastigote form of Trypanosoma cruzi strain Y assessed as creatinine level in plasma at 25 mg/kg, po administered via gavage daily for 15 days starting from 2 days post-infection and measured on 16th day post-infection; format: organism-based; details: in vivo, 360 h, time 15 day
[8] = Reduction in inflammatory cell infiltration in heart of BALB/c mouse infected with blood trypomastigote form of Trypanosoma cruzi strain Y at 25 mg/kg, po administered via gavage daily for 15 days starting from 2 days post-infection and measured on 16th day post-infection by haematoxylin and eosin staining based microscopic analysis relative to control; format: functional; details: 360 h, time 15 day
[9] = Cardiac toxicity in BALB/c mouse infected with blood trypomastigote form of Trypanosoma cruzi strain Y assessed as CK-MB level in plasma at 25 mg/kg, po administered via gavage daily for 15 days starting from 2 days post-infection and measured on 16th day post-infection; format: organism-based; details: in vivo, 360 h, time 15 day
[10] = Hepatotoxicity in BALB/c mouse infected with blood trypomastigote form of Trypanosoma cruzi strain Y assessed as AST level in plasma at 25 mg/kg, po administered via gavage daily for 15 days starting from 2 days post-infection and measured on 16th day post-infection; format: toxicity, organism-based; details: in vivo, 360 h, time 15 day
Trypanosoma cruzi [11] = test: as §2, with “parasitemia” for “parasite DNA load in host heart”, “13th” for “16th”, “optical microscopy” for “qPCR analysis”; format: functional; details: 360 h, time 15 day
Trypanosoma cruzi [12] = test: as §2, with “parasitemia” for “parasite DNA load in host heart”, “7th” for “16th”, “optical microscopy” for “qPCR analysis”; format: functional; details: 360 h, time 15 day
Trypanosoma cruzi [13] = test: as §1, with “Potency index, ratio of benznidazole IC50 to test compound IC50 for antitrypanosomal” for “Antitrypanosomal”; format: functional
[14] = Trypanosoma cruzi, Tulahuen, LLC-MK2, 72 h, read-out: IC50

Row | IC50 (Trypanosoma cruzi [3]; [14]) [µM] | Structure (SMILES) | selectivity ratio [1] | CC50 at 72 h [2] [µM] | further results
1 | 22.9 | Cc1nn(-c2ccccc2)c2nc(-c3ccccc3)cc(C(=O)N/N=C/c3ccc(O)c(O)c3)c12 | 3.11 | 71.2 | –
2 | 3.98 | O=C(Cn1ccnc1[N+](=O)[O-])NCc1ccccc1 [BENZNIDAZOLE] | > 50.2 | > 200 | inhibition in vivo at 25 mg/kg (Trypanosoma cruzi [4]; 360 h, time 15 day): 99%; inhibition in vivo at 25 mg/kg (Trypanosoma cruzi [5]): 100%; Activity [6]: Non-Toxic; Activity [7]: Non-Toxic; inhibition in vivo at 25 mg/kg [8]: 76%; Activity [9]: Non-Toxic; Activity [10]: Non-Toxic
3 | 22.6 | CC(=O)Oc1ccc(C2OC(c3cc(-c4ccccc4)nc4c3c(C)nn4-c3ccccc3)=NN2C(C)=O)cc1 (stereo not drawn) | 2.86 | 64.8 | –
4 | 16.2 | CC(=O)Oc1cccc(C2OC(c3cc(-c4ccccc4)nc4c3c(C)nn4-c3ccccc3)=NN2C(C)=O)c1 (stereo not drawn) | > 6.15 | > 100 | –
5 | 1.11 | CC(=O)Oc1ccccc1C1OC(c2cc(-c3ccccc3)nc3c2c(C)nn3-c2ccccc2)=NN1C(C)=O (stereo not drawn) | > 90.1 | > 100 | Activity (Trypanosoma cruzi [4]): inactive; inhibition in vivo at 25 mg/kg (Trypanosoma cruzi [5]): 57%; Activity [6]: Non-Toxic; Activity [7]: Non-Toxic; inhibition in vivo at 25 mg/kg [8]: 51%; inhibition in vivo at 25 mg/kg (Trypanosoma cruzi [11]): 53%; Activity [9]: Non-Toxic; Activity [10]: Non-Toxic; inhibition in vivo at 25 mg/kg (Trypanosoma cruzi [12]): 46.1%
6 | 21.4 | Cc1nn(-c2ccccc2)c2nc(-c3ccccc3)cc(C(=O)N/N=C/c3ccc(O)cc3)c12 | > 250 | > 250 | –
7 | 10.5 | CC(=O)N1N=C(c2cc(-c3ccccc3)nc3c2c(C)nn3-c2ccccc2)OC1c1cccc(O)c1 (stereo not drawn) | 1.63 | 17.2 | –
8 | – | COc1ccc(C2OC(c3cc(-c4ccccc4)nc4c3c(C)nn4-c3ccccc3)=NN2C(C)=O)cc1OC(C)=O (stereo not drawn) | – | – | IC50 (Trypanosoma cruzi [3]; llc-mk2): Nd(Insoluble)
9 | 33.9 | CC(=O)Oc1ccc(C2OC(c3cc(-c4ccccc4)nc4c3c(C)nn4-c3ccccc3)=NN2C(C)=O)cc1OC(C)=O (stereo not drawn) | 1.6 | 54.5 | –
10 | 23.2 | Cc1nn(-c2ccccc2)c2nc(-c3ccccc3)cc(C(=O)N/N=C/c3cccc(O)c3)c12 | 3 | 69.6 | –
11 | 0.85 | Cc1nn(-c2ccccc2)c2nc(-c3ccccc3)cc(C(=O)N/N=C/c3ccccc3O)c12 | > 235 | > 200 | Ratio IC50 (Trypanosoma cruzi [13]): 4; Activity (Trypanosoma cruzi [4]): inactive; Activity (Trypanosoma cruzi [5]; time 15.0 day): inactive; Activity [6]: Non-Toxic; Activity [7]: Non-Toxic; inhibition in vivo at 25 mg/kg [8]: 62.5%; inhibition in vivo at 25 mg/kg (Trypanosoma cruzi [11]): 14.5%; Activity [9]: Toxic; Activity [10]: Non-Toxic; inhibition in vivo at 25 mg/kg (Trypanosoma cruzi [12]): 44.7%
12 | 17.7 | CC(=O)N1N=C(c2cc(-c3ccccc3)nc3c2c(C)nn3-c2ccccc2)OC1c1ccc(O)cc1 (stereo not drawn) | 1.94 | 34.4 | –
13 | 21 | COc1ccc(/C=N/NC(=O)c2cc(-c3ccccc3)nc3c2c(C)nn3-c2ccccc2)cc1O | 2.52 | 53 | –
